Test results: patent US20210352895A1, “SYNERGISTIC PESTICIDAL COMPOSITIONS AND METHODS FOR DELIVERY OF ACTIVE INGREDIENTS” (0903608 B.C. Ltd., priority 2018, published 2021)
Read-outs that look alike come from different tables or passages of the source. Blank lines part the entries; values can stand above or below the molecule they belong to.

Tests used:
Sclerotinia sclerotiorum = experiment: Synergistic Growth Inhibition Assay (MIC / FIC index, resazurin, 96-well) on Sclerotinia sclerotiorum; type: cell-based; conditions: for MIC (A): Compound A alone
Protocol: (§1) In some embodiments, the synergistic action between the pesticidal active ingredient, and the at least one C4-C10 (or alternatively C11 or C12) saturated or unsaturated aliphatic acid components of the pesticidal compositions according to embodiments of the present disclosure was tested using a Synergistic Growth Inhibition Assay, which is derived from and related to a checkerboard assay as is known in the art for testing of combinations of antimicrobial agents. In the Synergistic Growth Inhibition Assay used in accordance with some embodiments of the present disclosure, multiple dilutions of combinations of pesticidal active ingredient and at least one C4-C10 saturated or unsaturated aliphatic acid agents are tested in individual cells for inhibitory activity against a target pest or pathogenic organism. In one such embodiment, the combinations of pesticidal active ingredient and C4-C10 (or alternatively C11 or C12) saturated or unsaturated aliphatic acid agents may preferably be tested in decreasing concentrations. In a further such embodiment, the combinations of pesticidal active ingredient and C4-C10 (or alternatively C11 or C12) saturated or unsaturated aliphatic acid agents may be tested in increasing concentrations. These multiple combinations of the pesticidal active ingredient and at least one C4-C10 (or alternatively C11 or C12) saturated or unsaturated aliphatic acid agents may be prepared in 96-well microtiter plates. In one such embodiment, the Synergistic Growth Inhibition Assay then comprises rows which each contain progressively decreasing concentrations of the pesticidal active ingredient and one or more C4-C10 (or alternatively C11 or C12) saturated or unsaturated aliphatic acid agents to test for the MIC of the agents in combination at which growth of the target pest or pathogen is inhibited. Thus, each well of the microtiter plate is a unique combination of the two agents, at which inhibitory efficacy of the combination against the target pest or pathogen can be determined.
(§2) In one embodiment according to the present disclosure, for each row of microtiter cells in the Synergistic Growth Inhibition Assay, the FIC index is calculated from the lowest concentration of the pesticidal active ingredient and one or more C4-C10 saturated or unsaturated aliphatic acid agents necessary to inhibit growth of a target pest or pathogen. The FIC of each component is derived by dividing the concentration of the agent present in that well of the microtiter plate by the minimal inhibitory concentration (MIC) needed of that agent alone to inhibit growth of the target pest or pathogen. The FIC index is then the sum of these values for both agents in that well of the microtiter plate. The FIC index is calculated for each row as follows:
(§3) FICindex=MICa/MICA+MICb/MICB
(§4) Fractional inhibitory concentration indices may then used as measure of synergy. […] When the FIC index is equal to 1, the combination is additive.
(§5) Then, serial dilutions of these initial compositions in successive wells in the row of the microtiter plate were used to assay the pesticidal composition under the same conditions to determine the concentration of the composition combining the two agents corresponding to the microtiter well in which growth inhibition of the target pest or organism ceases.
(§6) Similarly to as described above, Resazurin was used as an indicator of growth or inhibition of growth of Sclerotinia sclerotiorum in the exemplary Synergistic Growth Inhibition Assay. In addition to the color change of the resazurin, an optical or visual examination of the microtiter well may also be made to additionally determine the presence of growth or inhibition of growth of the Sclerotinia sclerotiorum.

Botrytis cinerea = experiment: Synergistic Growth Inhibition Assay (MIC / FIC index, resazurin, 96-well) on Botrytis cinerea; type: cell-based; conditions: Botrytis cinerea, Botrytis cinerea; for MIC: 48 h
Protocol: as §1, §2, §3, §4, §5
as §6, with “Botrytis cinerea” for “Sclerotinia sclerotiorum”, “Botrytis cinerea.” for “Sclerotinia sclerotiorum.”

Fusarium oxysporum = experiment: Synergistic Growth Inhibition Assay (MIC / FIC index, resazurin, 96-well) on Fusarium oxysporum; type: cell-based; conditions: for MIC: 48 h
Protocol: as §1, §2, §3, §4, §5
Resazurin dye (also known as Alamar blue dye) was used as an indicator to determine the presence of growth or inhibition of growth of Fusarium oxysporum in the wells of the 96 well microtiter plates used in the exemplary Synergistic Growth Inhibition Assay. In addition to the color change of the resazurin dye in the presence of growth of the Fusarium oxysporum, an optical or visual examination of the microtiter well may also be made to additionally determine the presence of growth or inhibition of growth of the Fusarium oxysporum.

Trichoplusia ni = experiment: In-vitro insecticidal efficacy of Entrust SC (spinosad) with saturated and unsaturated aliphatic acids on artificial diet, Abbott and Colby formulae; type: in vivo, Trichoplusia ni (cabbage looper); conditions: Entrust SC 0.034 ppm ([…] spinosad); aliphatic acid (salt) 500 ppm; Abbott-corrected
Protocol: An artificial diet suitable for Trichoplusia ni (cabbage looper caterpillar) was prepared from a commercially available general purpose lepidoptera artificial diet premix (General Purpose Lepidoptera Diet available from Frontier Scientific Services, Newark, Del.) mixed in agar media and then heated to liquify the media. The liquid artificial diet media was then used to fill each well of a 96-well treatment plate with 200 uL of artificial diet media, which was allowed to solidify at room temperature and stored at approximately 4 C.
A 20 uL treatment sample of each treatment formulation was then placed on top of the solidified artificial diet media in each well of the 96 well plates and allowed to dry overnight. The following day, one neonate Trichoplusia ni (cabbage looper) larva (hatched from eggs obtained from the Natural Resource Canada insect research facility in Sault-Ste-Marie, ON, Canada) was added to each well of the plate, and their mortality rate was evaluated after 5 days, to determine the insecticidal efficacy of the Entrust® SC treatment alone, each exemplary unsaturated or saturated aliphatic acid (and salt) alone, and each combination of spinosad (as Entrust® SC) and unsaturated or saturated aliphatic acid (and salt). Each experiment contained 3 replicates.
While for SF<1, antagonism is present and for SF=1, the efficacy of the compounds is merely additive.

[1] = Sclerotinia sclerotiorum, read-out: MIC (B), Compound B alone, Sclerotinia sclerotiorum, 7 days incubation
[2] = Compound A alone, incubation period of 48 hours, read-out: MIC (A)
[3] = Compound A alone, incubation period of 2 days
[4] = Compound A alone, 48 hours incubation
[5] = Compound A alone, incubation period of 48 hours

SMILES: O=C(O)CCCCCCCCCO [10-hydroxydecanoic acid]
MIC (Sclerotinia sclerotiorum; [1]): 1000 µg/mL | MIC (Botrytis cinerea; read-out: MIC (B), Compound B alone, 48 hours incubation): 500 µg/mL | MIC (Botrytis cinerea; read-out: MIC (B), Compound B alone, incubation period of 2 days): 500 µg/mL | MIC (Fusarium oxysporum; Fusarium oxysporum, read-out: MIC (B), Compound B alone, Fusarium oxysporum, 48 hours incubation): 1000 µg/mL

SMILES: O=C(O)CCCCCCCCCCCO [12-hydroxydodecanoic acid]
MIC (Sclerotinia sclerotiorum; [1]): 100 µg/mL | MIC (Sclerotinia sclerotiorum; Sclerotinia sclerotiorum, read-out: MIC (B), Compound B alone, Sclerotinia sclerotiorum, incubation period of 7 days): 100 µg/mL

SMILES: C/C=C/C=C/C(=O)[O-].[K+] [(2E,4E)-2,4 hexadienoic acid, K-salt]
Observed Efficacy, W (%) (Trichoplusia ni): 9.1%

SMILES: C/C=C/C=C/C(=O)O [(2E,4E)-2,4 hexadienoic acid]
Observed Efficacy, W (%) (Trichoplusia ni): 4.5%

SMILES: Cc1cc(C2CC2)nc(Nc2ccccc2)n1 [Cyprodinil, reference compound]
MIC (Botrytis cinerea; [2]): 9 µg/mL

SMILES: CC1COC(Cn2cncn2)(c2ccc(Oc3ccc(Cl)cc3)cc2Cl)O1 (stereo not drawn) [Difenoconazole, reference compound]
MIC (Botrytis cinerea; [2]): 25.5 µg/mL | MIC (A) (Botrytis cinerea; [3]): 0.051 mg/mL | MIC (A) (Fusarium oxysporum; [4]): 0.051 mg/mL

SMILES: CCCCCCCCCCCC(=O)O [Dodecanoic acid, dodecanoic acid]
Observed Efficacy, W (%) (Trichoplusia ni): 0%

SMILES: N#Cc1c[nH]cc1-c1cccc2c1OC(F)(F)O2 [Fludioxonil, fludioxonil, reference compound]
MIC (Sclerotinia sclerotiorum; Sclerotinia sclerotiorum, read-out: MIC (A), Compound A alone, Sclerotinia sclerotiorum, incubation period of 7 days): 0.328 µg/mL | MIC (Botrytis cinerea; read-out: MIC (A), Compound A alone, incubation period of 2 days): 0.164 µg/mL

SMILES: CC(C)C1C2CCC1c1c(NC(=O)c3cn(C)nc3C(F)F)cccc12 (stereo not drawn) [Isopyrazam, reference compound]
MIC (A) (Botrytis cinerea; [5]): 0.03125 mg/mL

MIC (A) (Botrytis cinerea; [5]): 0.125 mg/mL | MIC (A) (Fusarium oxysporum; Compound A alone, Fusarium oxysporum, incubation period of 48 hours): 0.5 mg/mL | MIC (A) (Fusarium oxysporum; Table 60, Compound A = nootkatone(+), alone or in combination with Compound B, incubation period not stated in table (either 24 hours or 4 days)): 0.5 mg/mL
SMILES: C=C(C)[C@@H]1CCC2=CC(=O)C[C@@H](C)[C@]2(C)C1 [Nootkatone (+)]

SMILES: CCCCCCCC(=O)[O-].[K+] [Octanoic acid, K-salt]
Observed Efficacy, W (%) (Trichoplusia ni): 0%

SMILES: CCCCCCCC(=O)O [Octanoic acid, octanoic acid]
Observed Efficacy, W (%) (Trichoplusia ni): 4.5%

SMILES: Cc1cc(C(F)(F)F)nn1CC(=O)N1CCC(c2nc(C3=NOC(c4c(F)cccc4F)C3)cs2)CC1 (stereo not drawn) [Oxathiapiprolin, reference compound]
MIC (A) (Botrytis cinerea; [5]): 0.5 mg/mL

SMILES: COC(=O)N(OC)c1ccccc1COc1ccn(-c2ccc(Cl)cc2)n1 [Pyraclostrobin, pyraclostrobin, reference compound]
MIC (A) (Sclerotinia sclerotiorum; 7 days incubation): 0.00375 mg/mL | MIC (Botrytis cinerea; Compound A alone, incubation period of 2 days, read-out: MIC (A)): 15 µg/mL

SMILES: CC(C)(C)C(O)(CCc1ccc(Cl)cc1)Cn1cncn1 (stereo not drawn) [Tebuconazole, reference compound]
MIC (A) (Sclerotinia sclerotiorum; Sclerotinia sclerotiorum, 2-fold dilutions, incubation period of 7 days): 0.1125 mg/mL | MIC (A) (Botrytis cinerea; [3]): 0.1125 mg/mL | MIC (A) (Botrytis cinerea; [5]): 0.1125 mg/mL | MIC (A) (Fusarium oxysporum; [4]): 0.225 mg/mL | MIC (Fusarium oxysporum; Fusarium oxysporum, Compound A alone, Fusarium oxysporum, incubation period of 48 hours, read-out: MIC (A)): 112 µg/mL

SMILES: CCCCCC/C=C/C(=O)O [Trans-2 nonenoic acid]
Observed Efficacy, W (%) (Trichoplusia ni): 3.6%

SMILES: CCCCCCCC/C=C/C(=O)O [Trans-2 undecenoic acid]
Observed Efficacy, W (%) (Trichoplusia ni): 27.3%

SMILES: CCCC/C=C/CC(=O)O [Trans-3 octenoic acid]
Observed Efficacy, W (%) (Trichoplusia ni): 4.5%

SMILES: CC/C=C/CC(=O)O [Trans-3-hexenoic acid, trans-3-hexenoic acid]
Observed Efficacy, W (%) (Trichoplusia ni): 0%
